Reference: US11530198B2, “Compositions and methods for treating infections” (priority 2016, dated 2022)
Where two headings read alike, the source gives them in different places.

Legend:
T. gondii DHFR (tgDHFR) = T. gondii DHFR (tgDHFR) (Toxoplasma gondii, UniProt Q07422)
hDHFR = hDHFR (Homo sapiens (Human), UniProt P00374); assay: DHFR inhibition assay (diaphorase/resazurin coupled, fluorescence of resorufin), human DHFR; assay type: biochemical
T. brucei DHFR (tbDHFR) = T. brucei DHFR (tbDHFR) (Trypanosoma brucei brucei, UniProt Q27783); assay: DHFR inhibition assay (diaphorase/resazurin coupled), T. brucei DHFR; assay type: biochemical; conditions: for Average DHFR selectivity (h/tb)*-DHFR IC50: hDHFR IC50/tbDHFR IC50
T. cruzi DHFR (tcDHFR) = T. cruzi DHFR (tcDHFR) (Trypanosoma cruzi, UniProt Q27793); assay: DHFR inhibition assay (diaphorase/resazurin coupled), T. cruzi DHFR; assay type: biochemical; conditions: hDHFR IC50/tcDHFR IC50

Chain of hDHFR (P00374 whole entry): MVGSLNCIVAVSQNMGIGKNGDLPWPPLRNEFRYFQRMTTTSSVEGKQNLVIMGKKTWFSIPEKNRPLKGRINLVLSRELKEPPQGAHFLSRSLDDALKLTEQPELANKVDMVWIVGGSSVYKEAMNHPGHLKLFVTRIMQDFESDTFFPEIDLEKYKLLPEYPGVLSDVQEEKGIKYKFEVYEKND

| SMILES | Average DHFR selectivity (h/tg) (T. gondii DHFR (tgDHFR); hDHFR IC50/tgDHFR IC50) | further results |
| --- | --- | --- |
| Nc1ncc(N2CCN(c3ccc(Cl)c(Cl)c3)CC2)c(N)n1 [Compound 1, 5-(4-(3,4-dichlorophenyl)piperazin-1-yl)pyrimidine-2,4-diamine] | 5.5 | – |
| Nc1ncc(N2CCN(c3cccc(C(F)(F)F)c3)CC2)c(N)n1 [Compound 3, 5-(4-(3-(trifluoromethyl)phenyl)piperazin-1-yl)pyrimidine-2,4-diamine] | – | hDHFR pIC50-DHFR primary assay (hDHFR; Table 11): 6.27; tgDHFR pIC50-DHFR primary assay (T. gondii DHFR (tgDHFR)): 7.21 |
| Nc1ncc(N2CCN(c3ccc(Cl)cc3)CC2)c(N)n1 [Compound 6, 5-(4-(4-chlorophenyl)piperazin-1-yl)pyrimidine-2,4-diamine] | – | hDHFR pIC50-DHFR primary assay (hDHFR; Table 11): 5.96; tgDHFR pIC50-DHFR primary assay (T. gondii DHFR (tgDHFR)): 7.34 |
| Cc1cccc(N2CCN(c3cnc(N)nc3N)CC2)c1 [Compound 7, 5-(4-(m-tolyl)piperazin-1-yl)pyrimidine-2,4-diamine] | – | hDHFR pIC50-DHFR primary assay (hDHFR; Table 11): 5.22; tgDHFR pIC50-DHFR primary assay (T. gondii DHFR (tgDHFR)): 7.12 |
| Nc1ncc(N2CCN(c3cccc(Br)c3)CC2)c(N)n1 [Compound 11, 5-(4-(3-bromophenyl)piperazin-1-yl)pyrimidine-2,4-diamine] | 37.15 | – |
| Nc1ncc(N2CCC(c3ccccc3)CC2)c(N)n1 [Compound 15, 5-(4-phenylpiperidin-1-yl)pyrimidine-2,4-diamine] | 25.26 | – |
| Nc1ncc(N2CCN(c3cccc(N4CCOCC4)c3)CC2)c(N)n1 [Compound 25, 5-(4-(3-morpholinophenyl)piperazin-1-yl)pyrimidine-2,4-diamine] | 105.15 | – |
| CC1CN(c2cnc(N)nc2N)CCN1c1cccc(-c2ccccc2)c1 (stereo not drawn) [Compound 26, 5-(4-([1,1′-biphenyl]-3-yl)-3-methylpiperazin-1-yl)pyrimidine-2,4-diamine] | 14.96 | – |
| CC1CN(c2cccc(-c3ccccc3)c2)CCN1c1cnc(N)nc1N (stereo not drawn) [Compound 27, 5-(4-([1,1′-biphenyl]-3-yl)-2-methylpiperazin-1-yl)pyrimidine-2,4-diamine] | 218.78 | – |
| CCc1nc(N)nc(N)c1N1CCN(c2ccccc2)CC1 [Compound 28, 6-ethyl-5-(4-phenylpiperazin-1-yl)pyrimidine-2,4-diamine] | 235.78 | – |
| CCc1nc(N)nc(N)c1N1CCN(c2cccc(C)c2)CC1 [Compound 31, 6-ethyl-5-(4-(m-tolyl)piperazin-1-yl)pyrimidine-2,4-diamine] | 119.54 | – |
| CCc1nc(N)nc(N)c1N1CCN(c2cccc(OC)c2)CC1 [Compound 33, 6-ethyl-5-(4-(3-methoxyphenyl)piperazin-1-yl)pyrimidine-2,4-diamine] | – | Average DHFR selectivity (h/tg) (T. gondii DHFR (tgDHFR)): 120.23 |
| CCc1nc(N)nc(N)c1N1CCN(c2ccccn2)CC1 [Compound 34, 6-ethyl-5-(4-(pyridin-2-yl)piperazin-1-yl)pyrimidine-2,4-diamine] | 158.49 | – |
| CCc1nc(N)nc(N)c1N1CCN(c2ccncc2)CC1 [Compound 36, 6-ethyl-5-(4-(pyridin-4-yl)piperazin-1-yl)pyrimidine-2,4-diamine] | 110.92 | – |
| CCc1nc(N)nc(N)c1N1CCN(c2ccc(C)cc2)CC1 [Compound 39, 6-ethyl-5-(4-(p-tolyl)piperazin-1-yl)pyrimidine-2,4-diamine] | 144.58 | – |
| CCc1nc(N)nc(N)c1N1CCN(c2ccc(F)cn2)CC1 [Compound 44, 6-ethyl-5-(4-(5-fluoropyridin-2-yl)piperazin-1-yl)pyrimidine-2,4-diamine] | 71.23 | – |
| CCc1nc(N)nc(N)c1N1CCN(c2ccc(C)cn2)CC1 [Compound 45, 6-ethyl-5-(4-(5-methylpyridin-2-yl)piperazin-1-yl)pyrimidine-2,4-diamine] | 136.15 | – |
| Cc1nc(N)nc(N)c1N1CCN(c2ccccc2)CC1 [Compound 47, 6-methyl-5-(4-phenylpiperazin-1-yl)pyrimidine-2,4-diamine] | 84.63 | – |
| CCCc1nc(N)nc(N)c1N1CCC(c2ccccc2)CC1 [Compound 51, 5-(4-phenylpiperidin-1-yl)-6-propylpyrimidine-2,4-diamine] | 241.03 | – |
| CCCc1nc(N)nc(N)c1N1CCN(c2ccc(F)cc2)CC1 [Compound 52, 5-(4-(4-fluorophenyl)piperazin-1-yl)-6-propylpyrimidine-2,4-diamine] | 303.92 | – |

| SMILES | Average DHFR selectivity (h/tg) (T. gondii DHFR (tgDHFR); hDHFR IC50/tgDHFR IC50) | further results |
| --- | --- | --- |
| CCCc1nc(N)nc(N)c1N1CCN(c2ccccn2)CC1 [Compound 56, 6-propyl-5-(4-(pyridin-2-yl)piperazin-1-yl)pyrimidine-2,4-diamine] | 269.78 | – |
| CCCc1nc(N)nc(N)c1N1CCN(c2ncc(C)cn2)CC1 [Compound 59, 5-(4-(5-methylpyrimidin-2-yl)piperazin-1-yl)-6-propylpyrimidine-2,4-diamine] | 118.81 | – |
| CCCc1nc(N)nc(N)c1N1CCN(c2ccc(OC)cn2)CC1 [Compound 60, 5-(4-(5-methoxypyridin-2-yl)piperazin-1-yl)-6-propylpyrimidine-2,4-diamine] | 149.75 | – |
| Nc1ncc(N2CCN(c3cccc(-c4cccc(F)c4)c3)CC2)c(N)n1 [Compound 64, 5-(4-(3′-fluoro-[1,1′-biphenyl]-3-yl)piperazin-1-yl)pyrimidine-2,4-diamine] | 93.86 | – |
| Nc1ncc(N2CCN(c3cccc(C4CC4)c3)CC2)c(N)n1 [Compound 66, 5-(4-(3-cyclopropylphenyl)piperazin-1-yl)pyrimidine-2,4-diamine] | – | hDHFR pIC50-DHFR primary assay (hDHFR; Table 11): 5.79; tgDHFR pIC50-DHFR primary assay (T. gondii DHFR (tgDHFR)): 7.54 |
| N#Cc1cccc(-c2cccc(N3CCN(c4cnc(N)nc4N)CC3)c2)c1 [Compound 67, 3′-(4-(2,4-diaminopyrimidin-5-yl)piperazin-1-yl)-[1,1′-biphenyl]-3-carbonitrile] | 77.18 | – |
| Nc1ncc(N2CCN(c3cccc(-c4ccnnc4)c3)CC2)c(N)n1 [Compound 73, 5-(4-(3-(pyridazin-4-yl)phenyl)piperazin-1-yl)pyrimidine-2,4-diamine] | – | hDHFR pIC50-DHFR primary assay (hDHFR; Table 11): 5.96; tgDHFR pIC50-DHFR primary assay (T. gondii DHFR (tgDHFR)): 8.22 |
| Nc1ncc(N2CCN(c3cccc(-c4cncnc4)c3)CC2)c(N)n1 [Compound 74, 5-(4-(3-(pyrimidin-5-yl)phenyl)piperazin-1-yl)pyrimidine-2,4-diamine] | – | hDHFR pIC50-DHFR primary assay (hDHFR; Table 11): 5.84; tgDHFR pIC50-DHFR primary assay (T. gondii DHFR (tgDHFR)): 8.32 |
| COc1ncccc1-c1cccc(N2CCN(c3cnc(N)nc3N)CC2)c1 [Compound 80, 5-(4-(3-(2-methoxypyridin-3-yl)phenyl)piperazin-1-yl)pyrimidine-2,4-diamine] | 165.32 | – |
| Nc1ncc(N2CCN(c3cccc(-c4cnc(C5CC5)nc4)c3)CC2)c(N)n1 [Compound 86, 5-(4-(3-(2-cyclopropylpyrimidin-5-yl)phenyl)piperazin-1-yl)pyrimidine-2,4-diamine] | – | Average DHFR selectivity (h/tb)*-DHFR IC50 (T. brucei DHFR (tbDHFR)): 330 |
| Cc1ncc(-c2cccc(C3CCN(c4cnc(N)nc4N)CC3)c2)cn1 [Compound 94, 5-(4-(3-(2-methylpyrimidin-5-yl)phenyl)piperidin-1-yl)pyrimidine-2,4-diamine] | – | tbDHFR pIC50-DHFR primary assay (T. brucei DHFR (tbDHFR); Table 13, T. brucei DHFR): 9.05; Average DHFR selectivity (h/tb)*-DHFR IC50 (T. brucei DHFR (tbDHFR)): 357; hDHFR pIC50-DHFR primary assay (hDHFR; Table 13): 6.49 |
| CCc1ncc(-c2cccc(N3CCN(c4cnc(N)nc4N)CC3)c2)cn1 [Compound 95, 5-(4-(3-(2-ethylpyrimidin-5-yl)phenyl)piperazin-1-yl)pyrimidine-2,4-diamine] | 218.78 | Average DHFR selectivity (h/tb)*-DHFR IC50 (T. brucei DHFR (tbDHFR)): 375 |
| CN(C)c1ncc(-c2cccc(N3CCN(c4cnc(N)nc4N)CC3)c2)cn1 [Compound 96, 5-(4-(3-(2-(dimethylamino)pyrimidin-5-yl)phenyl)piperazin-1-yl)pyrimidine-2,4-diamine] | 115.48 | – |
| CNc1ncc(-c2cccc(N3CCN(c4cnc(N)nc4N)CC3)c2)cn1 [Compound 97, 5-(4-(3-(2-(methylamino)pyrimidin-5-yl)phenyl)piperazin-1-yl)pyrimidine-2,4-diamine] | 131.33 | – |
| Nc1ncc(N2CCN(c3cccc(-c4cnc(Cl)nc4)c3)CC2)c(N)n1 [Compound 100, 5-(4-(3-(2-chloropyrimidin-5-yl)phenyl)piperazin-1-yl)pyrimidine-2,4-diamine] | 197.28 | Average DHFR selectivity (h/tb)*-DHFR IC50 (T. brucei DHFR (tbDHFR)): 522 |
| Nc1ncc(N2CCN(c3cccc(-c4ccncn4)c3)CC2)c(N)n1 [Compound 102, 5-(4-(3-(pyrimidin-4-yl)phenyl)piperazin-1-yl)pyrimidine-2,4-diamine] | – | Average DHFR selectivity (h/tc) (T. cruzi DHFR (tcDHFR)): 103 |
| Nc1ncc(N2CCN(c3cccc(-c4ncccn4)c3)CC2)c(N)n1 [Compound 103, 5-(4-(3-(pyrimidin-2-yl)phenyl)piperazin-1-yl)pyrimidine-2,4-diamine] | – | hDHFR pIC50-DHFR primary assay (hDHFR; Table 11): 5.89; tgDHFR pIC50-DHFR primary assay (T. gondii DHFR (tgDHFR)): 7.56 |
| Nc1ncc(N2CCN(c3cccc(-c4cnccn4)c3)CC2)c(N)n1 [Compound 104, 5-(4-(3-(pyrazin-2-yl)phenyl)piperazin-1-yl)pyrimidine-2,4-diamine] | – | hDHFR pIC50-DHFR primary assay (hDHFR; Table 11): 5.88; tgDHFR pIC50-DHFR primary assay (T. gondii DHFR (tgDHFR)): 7.99 |
| Nc1nc(N)c(N2CCN(c3ccccc3)CC2)c(CC2CC2)n1 [Compound 106] | 218.96 | – |
